In patent US20070015725A1, “2-azapurine compounds and their uses” (Roche Diagnostics, GMBH, priority 1999, published 2007):
In the oligonucleotide strings, read from the 5' end, every base follows the letter of its sugar. An asterisk marks phosphorothioate; unmarked linkages are phosphodiester. Other units and linkages are bracketed, terminal groups are in braces. A string of capitals states the bases alone. [z2A] = 2-aza-2'-deoxyadenosine; d = 2'-deoxy (DNA)

Assays:
[1] = tested on: oligonucleotide duplexes; assay: Tm values and thermodynamic parameters of duplex formation (absorbance vs. temperature melting curves); type: binding; conditions: for Tm / ΔG / ΔH / ΔS: 10 mM Na-cacodylate, 100 mM NaCl, 10 mM MgCl2, pH 7; for Tm: 5 μM single strand concentration; for ΔG: duplex formation (ΔG°298); for ΔG / ΔH / ΔS: 5 μM single strand, MeltWin 3.0; for ΔH / ΔS: duplex formation
Method: Determination of melting curves and thermodynamics: Absorbance vs. temperature profiles were measured on Cary 1 or 1E spectrophotometers (Varian, Australia) with a Cary thermoelectrical controller. […] 3.0. Circular dichroism (CD) spectra were recorded on a Jasco 600 (Jasco, Japan) spectropolarimeter, a thermostatically controlled bath (Lauda RCS-6) in a 1-cm cuvette.

[2] = tested on: natural nucleobases; conditions: cited from earlier work

Compound	Tm [1]	ΔG [1]	ΔH [1]	ΔS [1]	also measured
5′-d(TAGGTC6ATACT) 3′-d(ATCCAGGTATGA): duplex SEQ ID NO: 3 with SEQ ID NO: 4; 6: z^2Ad; one z^2Ad-dG pair (chain 1 dTdAdGdGdTdCd[z2A]dAdTdAdCdT; chain 2: unmodified DNA)	46 °C	-9.9 kcal/mol	-83 kcal/mol	−236 cal/K mol	–
5′-d(TAGGTC6ATACT) 3′-d(ATCCAGTTATGA): duplex SEQ ID NO: 3 with SEQ ID NO: 2; 6: z^2Ad; one z^2Ad-dT pair (chain 1 TAGGTCAATACT; chain 1: DNA, [z2A] at 7, backbone not given here; chain 2: unmodified DNA)	42 °C	-9.2 kcal/mol	-85 kcal/mol	−245 cal/K mol	–
5′-d(TAGGTC66TACT) 3′-d(ATCCAGAAATGA): duplex SEQ ID NO: 5 with SEQ ID NO: 6; 6: z^2Ad; two z^2Ad-dA pairs (chain 1 TAGGTCNNTACT; z2Ad modified nucleosides; modified_base (7)..(8) n = 2-Aza 2′-deoxyadenosine)	25 °C	-5.7 kcal/mol	-49 kcal/mol	−141 cal/K mol	–
5′-d(TAGGTC66TACT) 3′-d(ATCCAGCCATGA): duplex SEQ ID NO: 5 with SEQ ID NO: 7; 6: z^2Ad; two z^2Ad-dC pairs (chain 1 TAGGTCNNTACT; z2Ad modified nucleosides; modified_base (7)..(8) n = 2-Aza 2′-deoxyadenosine)	20 °C	-5.5 kcal/mol	-41 kcal/mol	−113 cal/K mol	–
5′-d(TAGGTC66TACT) 3′-d(ATCCAGGGATGA): duplex SEQ ID NO: 5 with SEQ ID NO: 8; 6: z^2Ad; two z^2Ad-dG pairs (chain 1 TAGGTCNNTACT; z2Ad modified nucleosides; modified_base (7)..(8) n = 2-Aza 2′-deoxyadenosine)	46 °C	-10.1 kcal/mol	-74 kcal/mol	−206 cal/K mol	–
5′-d(TAGGTC66TACT) 3′-d(ATCCAGTTATGA): duplex SEQ ID NO: 5 with SEQ ID NO: 2; 6: z^2Ad; two z^2Ad-dT pairs (chain 1 dTdAdGdGdTdCd[z2A]d[z2A]dTdAdCdT; chain 2: unmodified DNA)	37 °C	-7.7 kcal/mol	-76 kcal/mol	−219 cal/K mol	–
5′-d(TAGGTCAATACT) 3′-d(ATCCAGGGATGA): unmodified duplex SEQ ID NO: 1 with SEQ ID NO: 8; two dA-dG mismatches (unmodified DNA) [reference compound]	36 °C	-7.4 kcal/mol	-47 kcal/mol	−127 cal/K mol	–
5′-d(TAGGTCAATACT) 3′-d(ATCCAGTTATGA): unmodified standard duplex, SEQ ID NO: 1 with SEQ ID NO: 2 (= SEQ ID NO: 10) (listed as DNA, chemistry not fully specified; one strand is listed 3' to 5') [reference compound]	46 °C	-10.4 kcal/mol	-82 kcal/mol	−230 cal/K mol	Tm ([1]; listed as 5′-d(TAGGTCAATACT) 5′-d(AGTATTGACCTA)): 47 °C
5′-d(TAGGTCGGTACT) 3′-d(ATCCAGCCATGA): unmodified duplex SEQ ID NO: 9 with SEQ ID NO: 7; two G-C pairs (listed as DNA, chemistry not fully specified; one strand is listed 3' to 5') [reference compound]	54 °C	–	–	–	–
Nc1nnnc2c1ncn2[C@H]1C[C@H](O)[C@@H](CO)O1 [Compound 2, 4-Amino-7-(2-deoxy-β-D-erythro-pentofuranosyl)-7H-imidazo[4,5-d][1,2,3]-triazine]	–	–	–	–	base pairing with 2′-deoxyguanosine (dG) [1]: specifically stable base pairs; base pairing with dT, dC and dA [1]: much less stable base pairs
O=c1[nH]nnc2c1ncn2[C@H]1C[C@H](O)[C@@H](CO)O1 [Compound 3, 7-(2-deoxy-β-D-erythro-pentofuranosyl)-7H-imidazo[4,5-d][1,2,3]-triazin-4-one]	–	–	–	–	stability of the base pair I^Az/G, less than the base pair A/T [2]: 9 °; stability of the base pair I^Az/G, less than the regular base pair C/G [2]: 13 °
OC[C@H]1O[C@@H](N2CNc3c2nnn2ccnc32)C[C@@H]1O [Compound 7, 3-(2-Deoxy-β-D-erythro-pentofuranosyl)-1H-diimidazo[1,2-c:4′,5′-e][1,2,3]-triazine]	–	–	–	–	melting point: 151 to 152 °C (dec.)
CC(C)CN(C=Nc1nnnc2c1ncn2[C@H]1C[C@H](O)[C@@H](CO)O1)CC(C)C [Compound 9b, 7-(2-Deoxy-β-D-erythro-pentofuranosyl)-4-{[(di-isobutylamino)methylidene]-amino}-7H-imidazo[4,5-d][1,2,3]-triazine]	–	–	–	–	melting point: 138 to 140 °C
CCCCN(C=Nc1nnnc2c1ncn2[C@H]1C[C@H](O)[C@@H](CO)O1)CCCC [Compound 9c, 7-(2-Deoxy-β-D-erythro-pentofuranosyl)-4-{[(di-n-butylamino)methylidene]-amino}-7H-imidazo[4,5-d][1,2,3]-triazine]	–	–	–	–	melting point: 107 to 109 °C
